According to publication PMC7382816 (BMC Pharmacology & Toxicology, 2020):
Where two headings read alike, the source gives them in different places.

Assays:
[1] = review; ref [26] Swan et al.; cited from earlier work
[2] = Single-dose pharmacokinetics in healthy volunteers under fasting and fed (high-fat breakfast) conditions, plasma concentrations by HPLC-MS, non-compartmental analysis; type: in vivo, human; parameters: Ke: unit not given here
From the text: The bioequivalence clinical trials were phase I, randomized, open-label, crossover, single-centre, with two periods separated by a 7-day washout stage. Subjects were randomised to one of the two treatment sequences, RT or TR where R was the reference formulation and T was the test formulation. Each of the clinical trial was crossover for evaluation of a test formulation compared to a reference formulation either under fed or fasting conditions. […] The treatments were allocated in a balanced manner on every inclusion day (blocks of 4 subjects). Our study adheres to CONSORT guidelines. […] Sample processing, genotyping for CYP2C19 and drug quantification were performed according to Román et al. […] Pharmacokinetic parameters were estimated from the plasma concentration–time data by non-compartmental analysis (WinNonlin Professional, version 2.0., Pharsight Corporation, USA) as reported by Román et al. […] WinNonLin Professional software version 2.0 was used for the statistical analysis. Pharmacokinetic parameters were log-transformed, and AUC and Cmax were adjusted for dose and weight. The values of pharmacokinetic parameters were expressed as mean ± standard deviation.

[3] = Fed (high-fat breakfast), all subjects, single oral dose, mean ± SD
[4] = both sexes, human, plasma, oral, only CYP2C19*1/*1 subjects, Fast, men and women, mean ± SD
[5] = both sexes, human, plasma, oral, only CYP2C19*1/*1 subjects, Fed, men and women, mean ± SD
[6] = both sexes, human, plasma, po, Fast, all subjects, single oral dose, mean ± SD
[7] = both sexes, human, plasma, po, Fed (high-fat breakfast), all subjects, single oral dose, mean ± SD
[8] = female, human, plasma, oral, only CYP2C19*1/*1 subjects, Fast, women, mean ± SD
[9] = female, human, plasma, oral, only CYP2C19*1/*1 subjects, Fed, women, mean ± SD
[10] = female, human, plasma, po, Fast, women, single oral dose, mean ± SD
[11] = female, human, plasma, po, Fed, women, single oral dose, mean ± SD
[12] = male, human, plasma, oral, only CYP2C19*1/*1 subjects, Fast, men, mean ± SD
[13] = male, human, plasma, oral, only CYP2C19*1/*1 subjects, Fed, men, mean ± SD
[14] = male, human, plasma, po, Fast, men, single oral dose, mean ± SD
[15] = male, human, plasma, po, Fed, men, single oral dose, mean ± SD

COCCCOc1ccnc(C[S+]([O-])c2nc3ccccc3[nH]2)c1C (centres unmarked) [Rabeprazole, rabeprazole]
influence of co-ingestion of food on bioavailability [1]: not influenced
Ke ([2]; Fast, all subjects, single oral dose, mean ± SD): 0.60 ± 0.20
Ke ([2]; Fast, men, single oral dose, mean ± SD): 0.64 ± 0.20
Ke ([2]; Fast, women, single oral dose, mean ± SD): 0.56 ± 0.20
Cmax [2, 3]: 675.8 ± 218.8 ng/mL
Ke [2, 3]: 0.42 ± 0.22
Ke ([2]; Fed, men, single oral dose, mean ± SD): 0.38 ± 0.17
Ke ([2]; Fed, women, single oral dose, mean ± SD): 0.48 ± 0.27
AUC(0-inf) [2, 4]: 901 ± 235 ng·h/mL
CL/F [2, 4]: 6.17 mL/min/kg
Vd/F [2, 4]: 0.6 ± 0.11 L/kg
half-life [2, 4]: 1.3 ± 0.6 h
Cmax ([2]; both sexes, human, plasma, oral, only CYP2C19*1/*1 subjects, Fast, men and women, mean ± SD, read-out: Cmax): 536 ± 138 ng/mL
Tmax ([2]; both sexes, human, plasma, oral, only CYP2C19*1/*1 subjects, Fast, men and women, mean ± SD, read-out: Tmax): 3.9 ± 0.8 h
AUC(0-inf) [2, 5]: 969 ± 388 ng·h/mL
CL/F [2, 5]: 6.33 mL/min/kg
Vd/F [2, 5]: 0.92 ± 0.34 L/kg
half-life [2, 5]: 2 ± 0.9 h
Cmax ([2]; both sexes, human, plasma, oral, only CYP2C19*1/*1 subjects, Fed, men and women, mean ± SD, read-out: Cmax): 606 ± 207 ng/mL
Tmax ([2]; both sexes, human, plasma, oral, only CYP2C19*1/*1 subjects, Fed, men and women, mean ± SD, read-out: Tmax): 9.1 ± 3.3 h
Tmax ([2]; both sexes, human, plasma, oral, under fasting conditions, range among subjects, read-out: Tmax range): 2 to 7 h
Tmax ([2]; both sexes, human, plasma, oral, under fed conditions, range among subjects, read-out: Tmax range): 3 to 20 h
AUC(0-inf) [2, 6]: 972 ± 361 ng·h/mL
CL/F [2, 6]: 5.83 mL/min/kg
Vd/F [2, 6]: 0.6 ± 0.17 L/kg
half-life [2, 6]: 1.3 ± 0.5 h
Cmax ([2]; both sexes, human, plasma, po, Fast, all subjects, single oral dose, mean ± SD, read-out: Cmax): 556 ± 176 ng/mL
Tmax ([2]; both sexes, human, plasma, po, Fast, all subjects, single oral dose, mean ± SD, read-out: Tmax): 3.7 ± 0.9 h
AUC(0-inf) [2, 7]: 1050 ± 382 ng·h/mL
CL/F [2, 7]: 5.67 mL/min/kg
Vd/F [2, 7]: 0.91 ± 0.45 L/kg
half-life [2, 7]: 2.2 ± 1.3 h
Tmax ([2]; both sexes, human, plasma, po, Fed (high-fat breakfast), all subjects, single oral dose, mean ± SD, read-out: Tmax): 7.2 ± 2.6 h
difference in AUC between men and women ([2]; effect of sex (CYP2C19*1/*1 subjects, fed conditions)): around 5%
Cmax higher under fed conditions ([2]; fed vs fasting, all subjects): 21%
Delay of mean Tmax (absorption) by food ([2]; fed vs fasting, all subjects): about 3.5 h
half-life higher under fed conditions ([2]; fed vs fasting, all subjects): 66%
Delay of Tmax by food ([2]; fed vs fasting, only subjects with CYP2C19*1/*1): 5.2 h
AUC(0-inf) [2, 8]: 932 ± 172 ng·h/mL
CL/F [2, 8]: 6.83 mL/min/kg
Vd/F [2, 8]: 0.61 ± 0.12 L/kg
half-life [2, 8]: 1.1 ± 0.2 h
Cmax ([2]; female, human, plasma, oral, only CYP2C19*1/*1 subjects, Fast, women, mean ± SD, read-out: Cmax): 560 ± 136 ng/mL
Tmax ([2]; female, human, plasma, oral, only CYP2C19*1/*1 subjects, Fast, women, mean ± SD, read-out: Tmax): 3.8 ± 0.7 h
AUC(0-inf) [2, 9]: 944 ± 470 ng·h/mL
CL/F [2, 9]: 7.5 mL/min/kg
Vd/F [2, 9]: 0.85 ± 0.32 L/kg
half-life [2, 9]: 1.5 ± 0.9 h
Cmax ([2]; female, human, plasma, oral, only CYP2C19*1/*1 subjects, Fed, women, mean ± SD, read-out: Cmax): 634 ± 221 ng/mL
Tmax ([2]; female, human, plasma, oral, only CYP2C19*1/*1 subjects, Fed, women, mean ± SD, read-out: Tmax): 8.2 ± 0.6 h
AUC(0-inf) [2, 10]: 1120 ± 361 ng·h/mL
CL/F [2, 10]: 5.83 mL/min/kg
Vd/F [2, 10]: 0.65 ± 0.2 L/kg
half-life [2, 10]: 1.4 ± 0.5 h
Cmax ([2]; female, human, plasma, po, Fast, women, single oral dose, mean ± SD, read-out: Cmax): 638 ± 177 ng/mL
Tmax ([2]; female, human, plasma, po, Fast, women, single oral dose, mean ± SD, read-out: Tmax): 3.7 ± 0.9 h
AUC(0-inf) [2, 11]: 1050 ± 420 ng·h/mL
CL/F [2, 11]: 6.33 mL/min/kg
Vd/F [2, 11]: 0.92 ± 0.37 L/kg
half-life [2, 11]: 2 ± 1.3 h
Cmax ([2]; female, human, plasma, po, Fed, women, single oral dose, mean ± SD, read-out: Cmax): 728 ± 284 ng/mL
Tmax ([2]; female, human, plasma, po, Fed, women, single oral dose, mean ± SD, read-out: Tmax): 7.6 ± 2 h
AUC(0-inf) [2, 12]: 870 ± 296 ng·h/mL
CL/F [2, 12]: 5.5 mL/min/kg
Vd/F [2, 12]: 0.59 ± 0.1 L/kg
half-life [2, 12]: 1.5 ± 0.7 h
Cmax ([2]; male, human, plasma, oral, only CYP2C19*1/*1 subjects, Fast, men, mean ± SD, read-out: Cmax): 512 ± 147 ng/mL
Tmax ([2]; male, human, plasma, oral, only CYP2C19*1/*1 subjects, Fast, men, mean ± SD, read-out: Tmax): 3.9 ± 1 h
AUC(0-inf) [2, 13]: 1000 ± 323 ng·h/mL
CL/F [2, 13]: 5 mL/min/kg
Vd/F [2, 13]: 1.02 ± 0.39 L/kg
half-life [2, 13]: 2.5 ± 0.7 h
Cmax ([2]; male, human, plasma, oral, only CYP2C19*1/*1 subjects, Fed, men, mean ± SD, read-out: Cmax): 572 ± 215 ng/mL
Tmax ([2]; male, human, plasma, oral, only CYP2C19*1/*1 subjects, Fed, men, mean ± SD, read-out: Tmax): 10.3 ± 5.1 h
AUC(0-inf) [2, 14]: 836 ± 313 ng·h/mL
CL/F [2, 14]: 5.83 mL/min/kg
Vd/F [2, 14]: 0.55 ± 0.11 L/kg
half-life [2, 14]: 1.2 ± 0.5 h
Cmax ([2]; male, human, plasma, po, Fast, men, single oral dose, mean ± SD, read-out: Cmax): 479 ± 140 ng/mL
Tmax ([2]; male, human, plasma, po, Fast, men, single oral dose, mean ± SD, read-out: Tmax): 3.6 ± 0.9 h
AUC(0-inf) [2, 15]: 1050 ± 361 ng·h/mL
CL/F [2, 15]: 5.17 mL/min/kg
Vd/F [2, 15]: 0.91 ± 0.52 L/kg
half-life [2, 15]: 2.3 ± 1.3 h
Cmax ([2]; male, human, plasma, po, Fed, men, single oral dose, mean ± SD, read-out: Cmax): 635 ± 145 ng/mL
Tmax ([2]; male, human, plasma, po, Fed, men, single oral dose, mean ± SD, read-out: Tmax): 6.9 ± 3 h
Ke ([2]; only CYP2C19*1/*1 subjects, Fast, men and women, mean ± SD): 0.63 ± 0.20
Ke ([2]; only CYP2C19*1/*1 subjects, Fast, men, mean ± SD): 0.57 ± 0.25
Ke ([2]; only CYP2C19*1/*1 subjects, Fast, women, mean ± SD): 0.68 ± 0.13
Ke ([2]; only CYP2C19*1/*1 subjects, Fed, men and women, mean ± SD): 0.45 ± 0.23
Ke ([2]; only CYP2C19*1/*1 subjects, Fed, men, mean ± SD): 0.30 ± 0.11
Ke ([2]; only CYP2C19*1/*1 subjects, Fed, women, mean ± SD): 0.57 ± 0.25
